Measured values taken from patent US5391540A, “Substituted pyridine compounds” (Rohm and Haas Company, priority 1993, dated 1995).

Columns and labels:
Test in all cases: Pre-emergent herbicidal activity (Table A)
Assay type in all cases: in vivo
[1] = tested on: Barnyardgrass; conditions: Echinochloa crus-galli, pre-emergence, Bygr, 11.2 kg/ha, 10-14 days, read-out: herbicidal rating (% inhibition)
Summary of the method: (§1)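 Seeds or perennial propagules set on compacted topsoil, then covered with soil mixed with a known amount of test compound applied in acetone or water carrier. Ratings assigned on a scale based on percent inhibition of each species.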

[2] = tested on: Canada thistle; conditions: Cirsium arvense, pre-emergence, Cath, 11.2 kg/ha, 10-14 days, read-out: herbicidal rating (% inhibition)
Summary of the method: as §1

[3] = tested on: Cocklebur; conditions: Xanthium strumarium, pre-emergence, Cobu, 11.2 kg/ha, 10-14 days, read-out: herbicidal rating (% inhibition)
Summary of the method: as §1

[4] = tested on: Common Lambsquarters; conditions: Chenopodium album, pre-emergence, Colq, 11.2 kg/ha, 10-14 days, read-out: herbicidal rating (% inhibition)
Summary of the method: as §1

[5] = tested on: Downy Brome; conditions: Bromus tectorum, pre-emergence, Dobr, 11.2 kg/ha, 10-14 days, read-out: herbicidal rating (% inhibition)
Summary of the method: as §1

[6] = tested on: Morningglory; conditions: Ipomoea, pre-emergence, Mogl, 11.2 kg/ha, 10-14 days, read-out: herbicidal rating (% inhibition)
Summary of the method: as §1

[7] = tested on: Pennsylvania Smartweed; conditions: pre-emergence, Pesw, 11.2 kg/ha, 10-14 days, read-out: herbicidal rating (% inhibition)
Summary of the method: as §1

[8] = tested on: Quackgrass; conditions: pre-emergence, Rhqg, 11.2 kg/ha, 10-14 days, read-out: herbicidal rating (% inhibition)
Summary of the method: as §1

[9] = tested on: Rhizome Johnsongrass; conditions: Sorghum halepense, pre-emergence, Rhjg, 11.2 kg/ha, 10-14 days, read-out: herbicidal rating (% inhibition)
Summary of the method: as §1

[10] = tested on: Velvetleaf; conditions: Abutilon theophrasti, pre-emergence, Vele, 11.2 kg/ha, 10-14 days, read-out: herbicidal rating (% inhibition)
Summary of the method: as §1

[11] = tested on: Yellow Nutsedge; conditions: Cyperus, pre-emergence, Yens, 11.2 kg/ha, 10-14 days, read-out: herbicidal rating (% inhibition)
Summary of the method: as §1

Structure (SMILES) | inhibition at 11200 g/ha [1] | inhibition at 11200 g/ha [2] | inhibition at 11200 g/ha [3] | inhibition at 11200 g/ha [4] | inhibition at 11200 g/ha [5] | inhibition at 11200 g/ha [6] | inhibition at 11200 g/ha [7] | inhibition at 11200 g/ha [8] | inhibition at 11200 g/ha [9] | inhibition at 11200 g/ha [10] | inhibition at 11200 g/ha [11]
COC(=O)c1c(OC)nc(C(F)(F)F)c(N)c1CC(C)C [Compound 36, 3-pyridinecarboxylic acid, 5-amino-2-methoxy-4-(2-methylpropyl)-6-(trifluoromethyl)-, methyl ester] | 75 to 100% | 25 to 49% | 0 to 24% | 75 to 100% | 75 to 100% | 50 to 74% | 75 to 100% | 75 to 100% | 75 to 100% | 50 to 74% | 0 to 24%
CCOc1nc(C(F)(F)F)c(C(=O)SC)c(CC(C)C)c1C(=O)OC [Compound 45, 3-pyridinecarboxylic acid, 2-ethoxy-4-(2-methylpropyl)-5-[(methylthio)carbonyl]-6-(trifluoromethyl)-, methyl ester] | 75 to 100% | 75 to 100% | 0 to 24% | 75 to 100% | 75 to 100% | 75 to 100% | 75 to 100% | 75 to 100% | 75 to 100% | 75 to 100% | 75 to 100%
COC=Nc1c(OC)nc(C(F)(F)F)c(C(=O)OC)c1CC(C)C [Compound 56, 3-pyridinecarboxylic acid, 6-methoxy-5-[(methoxymethylene)amino]-4-(2-methylpropyl)-2-(trifluoromethyl)-, methyl ester] | 75 to 100% | 0 to 24% | 0 to 24% | 75 to 100% | 75 to 100% | 0 to 24% | 0 to 24% | 0 to 24% | 0 to 24% | 0 to 24% | 0 to 24%
COC(=O)c1c(OC)nc(C(F)(F)F)c(C(=O)OC)c1C(C)C [Compound 63, 3,5-pyridinedicarboxylic acid, 2-methoxy-4-(1-methylethyl)-6-(trifluoromethyl)-, dimethyl ester] | 75 to 100% | 50 to 74% | 0 to 24% | 75 to 100% | 75 to 100% | 75 to 100% | 75 to 100% | 75 to 100% | 75 to 100% | 75 to 100% | 75 to 100%
COC(=O)c1c(OC)nc(C(F)(F)F)c(C(=O)N2CCOCC2)c1CC(C)C [Compound 69, 3-pyridinecarboxylic acid, 2-methoxy-4-(2-methylpropyl)-5-(4-morpholinyl)carbony1-6-(trifluoromethyl)-, methyl ester] | 75 to 100% | 50 to 74% | 0 to 24% | 75 to 100% | 25 to 49% | 25 to 49% | 0 to 24% | 75 to 100% | 50 to 74% | 0 to 24% | 0 to 24%
COC(=O)c1c(C(F)(F)F)nc(OC)c(N=CN(C)C)c1CC(C)C [Compound 57, 3-pyridinecarboxylic acid, 5[[(dimethylamino)methylene]amino]-6-methoxy-4-(2-methylpropyl)-2-(trifluoromethyl)-, methyl ester] | 75 to 100% | 0 to 24% | 0 to 24% | 75 to 100% | 75 to 100% | 50 to 74% | 0 to 24% | 75 to 100% | 75 to 100% | 50 to 74% | 0 to 24%
COC(=O)c1c(C(F)(F)F)nc(OC)c(C2=NCCO2)c1CC(C)C [Compound 27, 3-pyridinecarboxylic acid, 5-(4,5-dihydro-2-oxazolyl)-6-methoxy-4-(2-methylpropyl)-2-(trifluoromethyl)-, methyl ester] | 75 to 100% | 75 to 100% | 25 to 49% | 75 to 100% | 75 to 100% | 75 to 100% | 75 to 100% | 75 to 100% | 0 to 24% | 75 to 100% | 50 to 74%
